In patent publication US7919457B2, “Thrombin peptide derivative dimers” (Orthologic Corp., priority 2002, dated 2011):

How the values were obtained:
[1] = system: thrombin receptors; assay: Peptide competition for [125I]-alpha-thrombin binding to ME cells; conditions: for fold higher concentration required for 30% inhibition than p508-530: [125I]-alpha-thrombin binding; for Conc. at Maximal % Inhibition / Concentration Required for 30% Inhibition / Maximal % Inhibition: [125I]-alpha-thrombin binding to ME cells; for Maximal % Inhibition: at the conc. printed below the value
Source text: Thrombin peptide derivatives are believed to activate cells by binding to a high-affinity cell-surface thrombin receptor known as the non-proteolytically-activated thrombin receptor (hereinafter “NPAR”) (R. Horvat, et. al., J. Cell Sci. 108, 1155-1164, 1995). Compounds which stimulate NPAR are said to be thrombin receptor agonists. NPAR activation can be assayed based on the ability of molecules to stimulate cell proliferation when added to fibroblasts in the presence of submitogenic concentrations of thrombin or molecules that activate protein kinase C or compete with ^125I-thrombin for high affinity binding to thrombin receptors, as disclosed in U.S. Pat. Nos. 5,352,664 and 5,500,412 and in Glenn et al., J. Peptide Research 1:65 (1988).
To further identify regions of thrombin involved in high-affinity binding and generation of mitogenic signals, two peptides representing specific domains within p508-530 were tested. The first peptide represented residues 519 to 530 of the B-chain region of human prothrombin, a region of thrombin that is highly conserved among serine proteases. The second peptide represented residues 517 to 520 of prothrombin, a region of thrombin homologous to the fibronectin cell binding domain.
Both of these peptides were able to compete for 30% to 50% of the binding of [^125I]-alpha-thrombin to ME cells, but both required higher concentrations than was required with the initial peptide p508-530 (Table 1). For example, 30% inhibition of [^125I]-alpha-thrombin binding required 33- to 50-fold higher concentrations of p519-530 and p517-520 than p508-530, respectively. Thus, both of these peptides appear to interact with thrombin receptors, but at a lower affinity than p508-530. Because p517-520 is homologous to the fibronectin cell binding domain, a peptide having the sequence Arg-Gly-Ala-Ser (SEQ ID NO:13; the sequence of the fibronectin specific peptide) was also tested for its ability to compete for [^125I]-alpha-thrombin binding. […] Thus, the receptor for alpha-thrombin is not the same membrane protein that specifically interacts with fibronectin and causes the apparent growth promoting action of fibronectin.

[2] = system: NIL cells; conditions: increasing concentrations, quiescent NIL cells, 2 and 4 nM alpha-thrombin; FIG. 6 of U.S. Pat. No. 5,500,412; cited from earlier work

| Substance | competition with [125I]-alpha-thrombin for binding ([1]; at a concentration of 1.3 μM) | effect on DNA synthesis [2] | fold higher concentration required for 30% inhibition than p508-530 [1] | Conc. at Maximal % Inhibition [1] | Concentration Required for 30% Inhibition [1] | Maximal % Inhibition [1] |
| --- | --- | --- | --- | --- | --- | --- |
| Arg-Gly-Ala-Ser (RGAS; Fibronectin fragment) | did not compete |  |  |  |  |  |
| DACEGDSGGPFV (Thrombin peptide derivative) [p519-530] |  | enhanced DNA synthesis over a range of concentrations | 33 fold | (800 nM) | 200 nM | 51% |
| RGDA (Thrombin peptide fragment) [p517-520] |  | inhibited DNA synthesis | 50 fold | (2.7 μM) | 300 nM | 50% |
